From patent US8604040B2 (priority 2010, dated 2013)
Where two headings read alike, the source gives them in different places. Marks after values point to notes of the source that are not given here.

Assay: log P by HPLC (EEC Directive 79/831 Annex V.A8)
Format: physicochemical
[1] = [b] LC-MS, acidic range, pH 2.7, 0.1% aqueous formic acid and acetonitrile
[2] = [c] LC-MS, neutral range, pH 7.8, 0.001 molar aqueous ammonium hydrogencarbonate and acetonitrile

Structure (SMILES) | log P [1] | log P [2] | chromatographic logP (HPLC (LC-MS), [b] LC-MS, acidic range, pH 2.7, 0.1% aqueous formic acid and acetonitrile, read-out: log P) | chromatographic logP (HPLC, pH 2.7, given in the preparation examples, read-out: logP (pH2.7))
Cc1ccccc1CSC(=O)c1cccc(C2CCN(C(=O)Cn3nc(C(F)(F)F)cc3C)CC2)n1 [Example 56] | 4.57 | 4.58 | – | –
Cc1cc(C(F)(F)F)nn1CC(=O)N1CCC(c2cccc(C(=O)SCc3ccccc3Cl)n2)CC1 [Example 57] | 4.61^[b]; 4.61^[c] | 4.61^[b]; 4.61^[c] | – | –
Cc1cc(C(F)(F)F)nn1CC(=O)N1CCC(c2cccc(C(=O)SCc3c(F)cccc3F)n2)CC1 [Example 58] | 4.27 | 4.29 | – | –
Cc1cc(C(F)(F)F)nn1CC(=O)N1CCC(c2cccc(C(=O)SCc3ccc(F)cc3)n2)CC1 [Example 59] | 4.29 | 4.31 | – | –
Cc1cc(C(F)(F)F)nn1CC(=O)N1CCC(c2cccc(C(=O)Sc3cccc4ccccc34)n2)CC1 [Example 60] | 4.41 | 4.46 | – | –
Cc1cc(C(F)(F)F)nn1CC(=O)N1CCC(c2cccc(C(=O)Sc3ccc4ccccc4c3)n2)CC1 [Example 61] | 4.57 | 4.61 | – | –
Cc1cc(C(F)(F)F)nn1CC(=O)N1CCC(c2cccc(C(=O)Sc3ccccc3)n2)CC1 [Example 62] | 3.95^[b]; 3.95^[c] | 3.95^[b]; 3.95^[c] | – | –
Cc1cc(C(F)(F)F)nn1CC(=O)N1CCC(c2cccc(C(=O)Sc3cccs3)n2)CC1 [Example 63] | 3.85 | 3.88 | – | –
Cc1cc(C(F)(F)F)nn1CC(=O)N1CCN(c2cccc(C(=O)N(C)C3CCCCC3)n2)CC1 [Example 64] | 3.19 | 3.21 | – | –
Cc1cc(C(F)(F)F)nn1CC(=O)N1CCN(c2cccc(C(=O)NCc3ccccc3Cl)n2)CC1 [Example 65] | 3.34 | 3.36 | – | –
Cc1cc(C(F)(F)F)nn1CC(=O)N1CCN(c2cccc(C(=O)NCc3c(F)cccc3F)n2)CC1 [Example 66] | 3.11 | 3.12 | – | –
Cc1cc(C(F)(F)F)nn1CC(=O)N1CCN(c2cccc(C(=O)NCc3cccs3)n2)CC1 [Example 67] | 2.92 | 2.93 | – | –
Cc1cc(C(F)(F)F)nn1CC(=O)N1CCN(c2cccc(C(=O)OCc3ccccc3Cl)n2)CC1 [Example 72] | 3.89 | 3.9 | – | –
Cc1cc(C(F)(F)F)nn1CC(=O)N1CCN(c2cccc(C(=O)OCc3c(F)cccc3F)n2)CC1 [Example 74] | 3.54 | 3.55 | – | –
Cc1cc(C(F)(F)F)nn1CC(=O)N1CCN(c2cccc(C(=O)Oc3ccc4ccccc4c3)n2)CC1 [Example 76] | 4.01 | 4.02 | – | –
CN(C(=O)c1cccc(C2CCN(C(=O)Cn3nc(C(F)F)cc3C(F)F)CC2)n1)c1ccccc1Cl [Example 77] | 3.01^[b]; 3.01^[c] | 3.01^[b]; 3.01^[c] | – | –
CN(C(=O)c1cccc(C2CCN(C(=O)Cn3nc(C(F)F)cc3C(F)F)CC2)n1)C1CCCCC1 [Example 78] | 3.02 | 3.08 | – | –
CN(Cc1ccc(Cl)cc1Cl)C(=O)c1cccc(C2CCN(C(=O)Cn3nc(C(F)F)cc3C(F)F)CC2)n1 [Example 79] | 3.66 | 3.73 | – | –
CN(Cc1ccccn1)C(=O)c1cccc(C2CCN(C(=O)Cn3nc(C(F)F)cc3C(F)F)CC2)n1 [Example 80] | 1.81 | 2.18 | – | –
O=C(Cn1nc(C(F)F)cc1C(F)F)N1CCC(c2cccc(C(=O)N3CCOc4ccccc43)n2)CC1 [Example 81] | 2.98 | 2.97 | – | –
CC(NC(=O)c1cccc(C2CCN(C(=O)Cn3nc(C(F)F)cc3C(F)F)CC2)n1)c1ccccc1Cl (stereo not shown) [Example 82] | 3.53 | 3.61 | – | –
CCCCCC(C)NC(=O)c1cccc(C2CCN(C(=O)Cn3nc(C(F)F)cc3C(F)F)CC2)n1 (stereo not shown) [Example 83] | 3.99 | 3.95 | – | –

Structure (SMILES) | log P [1] | log P [2] | chromatographic logP (HPLC (LC-MS), [b] LC-MS, acidic range, pH 2.7, 0.1% aqueous formic acid and acetonitrile, read-out: log P) | chromatographic logP (HPLC, pH 2.7, given in the preparation examples, read-out: logP (pH2.7))
O=C(NC1CCc2ccccc21)c1cccc(C2CCN(C(=O)Cn3nc(C(F)F)cc3C(F)F)CC2)n1 (stereo not shown) [Example 84] | 3.4 | 3.44 | – | –
CCCCCCCNC(=O)c1cccc(C2CCN(C(=O)Cn3nc(C(F)F)cc3C(F)F)CC2)n1 [Example 85] | 3.96 | 4.05 | – | –
O=C(NCc1ccc(Cl)cc1Cl)c1cccc(C2CCN(C(=O)Cn3nc(C(F)F)cc3C(F)F)CC2)n1 [Example 86] | 3.86^[b]; 3.86^[c] | 3.86^[b]; 3.86^[c] | – | –
O=C(NCc1ccc(F)cc1F)c1cccc(C2CCN(C(=O)Cn3nc(C(F)F)cc3C(F)F)CC2)n1 [Example 87] | 3.22 | 3.24 | – | –
O=C(NCc1ccccc1Cl)c1cccc(C2CCN(C(=O)Cn3nc(C(F)F)cc3C(F)F)CC2)n1 [Example 88] | 3.35 | 3.39 | – | –
O=C(NCc1c(F)cccc1F)c1cccc(C2CCN(C(=O)Cn3nc(C(F)F)cc3C(F)F)CC2)n1 [Example 89] | 3.11 | 3.14 | – | –
O=C(NCc1ccccn1)c1cccc(C2CCN(C(=O)Cn3nc(C(F)F)cc3C(F)F)CC2)n1 [Example 90] | 1.83 | 2.37 | – | –
O=C(NCc1cccs1)c1cccc(C2CCN(C(=O)Cn3nc(C(F)F)cc3C(F)F)CC2)n1 [Example 91] | 2.98 | 2.97 | – | –
Cc1ccsc1CNC(=O)c1cccc(C2CCN(C(=O)Cn3nc(C(F)F)cc3C(F)F)CC2)n1 [Example 92] | 3.19 | 3.18 | – | –
COC1CCCCC1OC(=O)c1cccc(C2CCN(C(=O)Cn3nc(C(F)F)cc3C(F)F)CC2)n1 (stereo not shown) [Example 97] | 4.17^[b] | – | – | –
O=C(OC1C=CCCC1)c1cccc(C2CCN(C(=O)Cn3nc(C(F)F)cc3C(F)F)CC2)n1 (stereo not shown) [Example 98] | 3.87^[b] | – | – | –
O=C(OC1CCCCC1)c1cccc(C2CCN(C(=O)Cn3nc(C(F)F)cc3C(F)F)CC2)n1 [Example 99, Cyclohexyl 6-(1-{[3,5-bis(difluoromethyl)-1H-pyrazol-1-yl]acetyl}piperidin-4-yl)-pyridine-2-carboxylate] | – | – | 3.83 | 3.83
O=C(OC1CCCc2ccccc21)c1cccc(C2CCN(C(=O)Cn3nc(C(F)F)cc3C(F)F)CC2)n1 (stereo not shown) [Example 100] | 4.07^[b] | – | – | –
C=CCCCCOC(=O)c1cccc(C2CCN(C(=O)Cn3nc(C(F)F)cc3C(F)F)CC2)n1 [Example 101] | 3.8^[b] | – | – | –
CCCCCCCOC(=O)c1cccc(C2CCN(C(=O)Cn3nc(C(F)F)cc3C(F)F)CC2)n1 [Example 102] | 4.59^[b] | – | – | –
O=C(OCc1ccc(F)cc1F)c1cccc(C2CCN(C(=O)Cn3nc(C(F)F)cc3C(F)F)CC2)n1 [Example 103] | 3.54^[b] | – | – | –
O=C(OCc1c(F)cc(F)cc1F)c1cccc(C2CCN(C(=O)Cn3nc(C(F)F)cc3C(F)F)CC2)n1 [Example 104] | 3.57^[b] | – | – | –
O=C(OCc1ccccc1Cl)c1cccc(C2CCN(C(=O)Cn3nc(C(F)F)cc3C(F)F)CC2)n1 [Example 105] | 3.77^[b] | – | – | –
O=C(OCc1ccccc1F)c1cccc(C2CCN(C(=O)Cn3nc(C(F)F)cc3C(F)F)CC2)n1 [Example 106] | 3.45^[b] | – | – | –
O=C(OCc1c(F)cccc1F)c1cccc(C2CCN(C(=O)Cn3nc(C(F)F)cc3C(F)F)CC2)n1 [Example 107] | 3.44^[b] | – | – | –
Cc1cccnc1COC(=O)c1cccc(C2CCN(C(=O)Cn3nc(C(F)F)cc3C(F)F)CC2)n1 [Example 108] | 2.14^[b] | – | – | –
Cc1csc(COC(=O)c2cccc(C3CCN(C(=O)Cn4nc(C(F)F)cc4C(F)F)CC3)n2)c1 [Example 109] | 3.6^[b] | – | – | –
